Assay results reported in ChEMBL document CHEMBL4689842, “EUbOPEN Chemogenomics Library wave 1” (2021).

Tests used:
Type in all cases: toxicity, cell-based
[1] = test system: HEK-293T; assay: Incucyte cell viability with HEK293T; conditions: human, 10 µM, compound concentration 10 uM
[2] = test system: Fibroblast; assay: Incucyte cell viability with human fibroblast; conditions: 10 µM, compound concentration 10 uM
[3] = test system: U2OS; assay: Incucyte cell viability with U2OS; conditions: human, 10 µM, compound concentration 10 uM
[4] = 0 h, replicate number 1, timepoint 0 hours
[5] = 0 h, replicate number 2, timepoint 0 hours
[6] = 6 h, replicate number 1, timepoint 6 hours
[7] = 12 h, replicate number 1, timepoint 12 hours
[8] = 18 h, replicate number 1, timepoint 18 hours
[9] = 24 h, replicate number 1, timepoint 24 hours
[10] = 6 h, replicate number 2, timepoint 6 hours
[11] = 18 h, replicate number 2, timepoint 18 hours
[12] = 24 h, replicate number 2, timepoint 24 hours
[13] = 12 h, replicate number 2, timepoint 12 hours
Further: filed as whole numbers so only -1 and 0 and 1 occur.

Structure (SMILES) | Growth Rate [1, 4] | Growth Rate [1, 5] | Growth Rate [1, 6] | Growth Rate [1, 7] | Growth Rate [1, 8] | Growth Rate [1, 9] | Growth Rate [2, 4] | Growth Rate [2, 6] | Growth Rate [2, 10] | Growth Rate [2, 7] | Growth Rate [2, 8] | Growth Rate [2, 9] | Growth Rate [3, 7] | Growth Rate [3, 8] | Growth Rate [3, 11] | Growth Rate [3, 9] | Growth Rate [3, 4] | Growth Rate [3, 10] | Growth Rate [2, 13] | Growth Rate [1, 13] | further results
CCCCCCCCCCCCCCCCOC[C@H](COP(=O)([O-])OCC[N+](C)(C)C)OC(C)=O | 1 | 0 | 1 | 1 | 1 | 1 | 0 | 1 | 0 | 1 | 1 | 1 | 1 | 0 | 1 | 1 | – | – | – | – | Growth Rate [2, 11]: 0; Growth Rate [2, 12]: 0; Growth Rate [3, 6]: 0; Growth Rate [3, 13]: 0
CCCc1c(OCCCOc2ccc(OCC(=O)O)cc2)ccc(C(C)=O)c1O | 1 | 0 | 1 | 1 | 1 | 1 | 0 | 1 | 0 | 1 | 1 | 1 | 0 | 1 | – | 0 | 0 | 1 | – | – | Growth Rate [1, 10]: 0; Growth Rate [2, 5]: 1; Growth Rate [3, 5]: 1; Growth Rate [3, 13]: 1; Growth Rate [3, 12]: 1
CC[C@@H]1CN2C(=O)N(C)c3nc(-c4ccccc4)[nH]c3C2=N1.Cl | 1 | 0 | 1 | 1 | 1 | 1 | 0 | – | – | 1 | 1 | 1 | – | 1 | – | 1 | – | 1 | 0 | – | Growth Rate [3, 5]: 0; Growth Rate [3, 13]: 0
c1ccc(Nc2nc3c(s2)CCCc2[nH]ncc2-3)nc1 | 1 | 0 | 0 | 0 | 0 | 0 | – | 0 | – | 1 | 1 | 0 | 1 | 0 | 1 | 0 | – | 0 | – | – | Growth Rate [1, 11]: 1; Growth Rate [1, 12]: 1; Growth Rate [3, 5]: 0; Growth Rate [3, 6]: 1
CCCNS(=O)(=O)Nc1ncnc(OCCOc2ncc(Br)cn2)c1-c1ccc(Br)cc1 | 0 | – | 0 | 0 | 0 | 0 | 0 | 0 | – | 0 | 1 | 0 | 0 | 0 | – | 0 | – | – | – | – | Growth Rate [3, 6]: 0
Cc1nnn(-c2ccc(-c3ccc(C4(C(=O)O)CC4)cc3)cc2)c1NC(=O)O[C@H](C)c1ccccc1 | 0 | – | 0 | 0 | 0 | 0 | 0 | – | – | – | – | – | 1 | 1 | – | 1 | 0 | – | – | 1 | Growth Rate [1, 11]: 1
FC(F)(F)c1cccc(-c2noc(-c3cc(-c4ccccc4)c(C(F)(F)F)s3)n2)c1 | 1 | 0 | 0 | 0 | 0 | 0 | 0 | – | 0 | 1 | 1 | 1 | 1 | 1 | 0 | 1 | 1 | – | – | – | Growth Rate [2, 12]: 0; Growth Rate [3, 5]: 0; Growth Rate [3, 6]: 1; Growth Rate [3, 13]: 0
CC(C)NC(=O)c1ccc(C#Cc2ccncc2)cn1 | 0 | – | 0 | 0 | 0 | 0 | 0 | 1 | 0 | 0 | 1 | 1 | 1 | 1 | – | 0 | 0 | – | 1 | – | Growth Rate [2, 5]: 1; Growth Rate [3, 12]: 1
COc1ccnc(N2CCC3(CCCN(Cc4c[nH]c5ccccc45)C3=O)CC2)n1 | 0 | – | 1 | 1 | 1 | 1 | 0 | 0 | – | 0 | 0 | 0 | 1 | 1 | – | 0 | 1 | 0 | – | 0 | Growth Rate [1, 11]: 0; Growth Rate [1, 12]: 0; Growth Rate [3, 13]: 0
Cc1cc([C@@H](C)Nc2cccc(-c3cc(C)c(C(=O)N[C@@H](C)C(=O)O)c(C)c3)c2)ccc1Cl | 1 | 0 | 0 | 0 | 0 | 0 | 0 | 1 | 0 | 1 | 1 | 0 | 1 | 0 | 1 | 1 | 0 | 0 | 0 | – | Growth Rate [3, 5]: 1
CC(C)c1onc(-c2c(Cl)cccc2Cl)c1COc1ccc(/C=C/c2cccc(C(=O)O)c2)c(Cl)c1 | 0 | – | 1 | 0 | 0 | 0 | 0 | 1 | – | 1 | 0 | 0 | 1 | 1 | – | 1 | 0 | – | – | 1 | Growth Rate [2, 5]: 1; Growth Rate [2, 11]: 1; Growth Rate [2, 12]: 1
COc1cc2c(CCNC(C)=O)c[nH]c2cc1Cl | 0 | – | 1 | 1 | 1 | 1 | 0 | 1 | – | 1 | 1 | 1 | 1 | 0 | 1 | 1 | 0 | 1 | – | 0 | Growth Rate [1, 10]: 0
NS(=O)(=O)c1c(Cl)ccc(NC(=O)Nc2cccc(Cl)c2Cl)c1O | 1 | 0 | 1 | 1 | 0 | 0 | 0 | – | 0 | 1 | 1 | 1 | 0 | 1 | – | 1 | 0 | – | 0 | – | Growth Rate [1, 11]: 1; Growth Rate [1, 12]: 1; Growth Rate [2, 5]: 1; Growth Rate [2, 11]: 0; Growth Rate [2, 12]: 0; Growth Rate [3, 12]: 0
Cl.O=C(O)Cc1cccc(OCCCN(Cc2cccc(C(F)(F)F)c2Cl)CC(c2ccccc2)c2ccccc2)c1 | 0 | – | 1 | 1 | 0 | 0 | 0 | 1 | 0 | 1 | 1 | 0 | 0 | 0 | 1 | 1 | 0 | 0 | 0 | 0 | Growth Rate [2, 11]: 0
CCCCN(CCCC)C(=O)CN1C[C@H](c2cc(OC)c3c(c2)OCO3)[C@@H](C(=O)O)[C@@H]1CC(C)(C)CCC.Cc1ccc(S(=O)(=O)O)cc1 | 0 | – | 1 | 1 | 1 | 1 | 0 | 1 | – | 1 | 1 | 0 | 1 | 0 | 1 | 1 | 0 | – | – | 0 | Growth Rate [1, 10]: 0; Growth Rate [1, 11]: 0; Growth Rate [1, 12]: 0; Growth Rate [2, 12]: 1; Growth Rate [3, 6]: 0
C[C@@H](c1cccc(C#N)c1)n1cc(Cl)cc(C(N)=O)c1=N.Cl | 0 | – | 1 | 0 | 1 | 1 | 0 | 1 | 0 | – | 1 | 1 | 1 | 1 | – | 1 | 0 | – | 0 | 1 | Growth Rate [2, 5]: 1; Growth Rate [2, 12]: 0
CC1(C)C(=O)C(C)(C)c2cc(C(=O)Nc3ccc(C(=O)O)cc3)ccc21 | 0 | – | – | 1 | 1 | 1 | 0 | 0 | – | 0 | 0 | 0 | 0 | 1 | – | 1 | 0 | 1 | – | – | Growth Rate [1, 10]: 1; Growth Rate [2, 5]: 1; Growth Rate [2, 11]: 1; Growth Rate [3, 13]: 1
COC1CCN(c2cccc(-c3cc(NC(C)=O)nc(-n4nc(C)cc4C)n3)n2)CC1 | 0 | – | 0 | 0 | 0 | 0 | 0 | 1 | 0 | 1 | 1 | 0 | 0 | 0 | – | 0 | 0 | 0 | 0 | – | Growth Rate [2, 11]: 0
CCCCCNC(=O)NS(=O)(=O)c1cc([N+](=O)[O-])ccc1NC1CCCCC1 | 1 | 0 | 0 | 0 | 0 | 1 | 0 | – | 0 | 1 | 1 | 1 | 1 | 0 | 1 | 1 | 0 | 1 | 0 | 1 | Growth Rate [1, 10]: 1; Growth Rate [1, 12]: 0; Growth Rate [2, 5]: 1
